Measurements as given in US5888995A, “Steroid esters” (priority 1991, dated 1999).
Like-named read-outs stand apart in the source and are kept apart here.

Tests used:
[1] = tested on: Sephadex induced lung edema (left lung lobe); experiment: Desired local antiinflammatory activity on airway mucosa (left lung lobe), Sephadex induced lung edema model, local instillation; type: in vivo, Sprague Dawley rats; details: Rattus norvegicus; in liposomes; instilled into left lung lobe 2 h before Sephadex; dose to reduce the edema by 50%; lungs weighed 20 h after Sephadex; read-out: ED50 (left lung administration) Left lung lobe
Description: (§1) A) Test model for desired local antiinflammatory activity on airway mucosa (left lung lobe).
(§2) Sprague Dawley rats (250 g) were slightly anaesthetized. with Ephrane and the glucocorticosteroid test preparation (in liposomes suspended in saline) in a volume of 0.5 ml/kg was instilled into the left lung lobe only. Two hours later a suspension of Sephadex (5 mg/kg in a volume of 1 ml/kg) was instilled in the trachea well above the bifurcation so that the suspension reached both the left and right lung lobes. Twenty hours later the rats were killed and the left lung lobes dissected out and weighed. Control groups got vehicle instead of glucocorticosteroid preparation and saline instead of Sephadex suspension so that lung weight due to non-drug-treated, Sephadex-induced edema and the normal lung weight could be determined.

[2] = tested on: Sephadex induced lung edema (lung); experiment: Unwanted systemic effect by orally absorbed glucocorticosteroid, Sephadex induced lung edema model, oral administration; type: in vivo, Sprague Dawley rats; details: Rattus norvegicus, 20 h, in liposomes, given orally 2 h before Sephadex, dose to reduce the edema by 50%, read-out: ED50 (p.o. adm.) lung
Description: (§3) B) Test model for unwanted systemic effect by orally absorbed glucocorticosteroid
(§4) Sprague Dawley rats (250 g) were slightly anaesthetized with Ephrane and the GCS test preparation in a volume of 1.0 ml/kg was given orally. Two hours later a suspension of Sephadex (5 mg/kg in a volume of 1 ml/kg) was instilled in the trachea well above the bifurcation so that the suspension reached both the left and the right lung lobes. Twenty hours later, the rats were killed and the lung lobes were weighed. Control groups got vehicle instead of glucocorticosteroid preparation and saline instead of Sephadex suspension so that lung weight due to non-drug-treated, Sephadex-induced edema and the normal lung weight could be determined.

[3] = tested on: Sephadex induced lung edema; experiment: Lung selectivity: ratio of oral and local ED50 in the Sephadex induced lung edema model; type: in vivo, Sprague Dawley rats; details: in liposomes; ED50 p.o. / ED50 left lung lobe
Excerpt: A considerable fraction of inhaled GCS is deposited in the pharynx and is subsequently swallowed, ending up in the gut. This fraction contributes to the unwanted side effects of the steroid since it is acting outside the area (the lung) intended for treatment. Therefore, it is favourable to use a GCS with high local anti-inflammatory activity in the lung but low GCS-induced effects after oral administration. Studies were therefore done in order to determine the GCS-induced effects after local application in the lung as well as after peroral administration, and the differentiation between glucocorticosteroid actions in the treated lung region and outside this area was tested in the following way.
as §1, §2, §3, §4

[4] = cited from earlier work; for unwanted GCS actions within the general circulation: highest of the recommended doses for inhalation

## CCCCCCCCCCCCCCCC(=O)OCC(=O)[C@@]12OC(CCC)O[C@@H]1C[C@H]1[C@@H]3CCC4=CC(=O)C=C[C@]4(C)[C@H]3[C@@H](O)C[C@@]12C (stereo partly drawn) [Budesonide-21-palmitate (RS), Budesonide-21-palmitate]
[1]
  ED50: 0.023 µmol/kg
[2]
  ED50: 1.52 µmol/kg
[3]
  Ratio oral/local administration (ED50): 66

## CCCCCCCCCCCCCCCC(=O)OCC(=O)[C@@]12O[C@H](CCC)O[C@@H]1C[C@H]1[C@@H]3C[C@H](F)C4=CC(=O)CC[C@]4(C)[C@@]3(F)[C@@H](O)C[C@@]12C [Example 1, (22R)-16α,17α-Butylidenedioxy-6α,9α-difluoro-11β-hydroxy-21-palmitoyloxypregn-4-ene-3,20-dione]
[1]
  ED50: 0.0015 µmol/kg
[2]
  ED50: 0.839 µmol/kg
[3]
  Ratio oral/local administration (ED50): 559

## CCCCCCCCCCCCCCCC(=O)OCC(=O)[C@@]12O[C@@H](CCC)O[C@@H]1C[C@H]1[C@@H]3C[C@H](F)C4=CC(=O)CC[C@]4(C)[C@@]3(F)[C@@H](O)C[C@@]12C [Example 3, (22S)-16α,17α-Butylidenedioxy-6α,9α-difluoro-11β-hydroxy-21-palmitoyloxypregn-4-ene-3,20-dione]
[1]
  ED50: 0.0035 µmol/kg
[2]
  ED50: 0.554 µmol/kg
[3]
  Ratio oral/local administration (ED50): 158

## CCCCCCCCCCCCCCCC(=O)OCC(=O)[C@@]12O[C@H](CCC)O[C@@H]1C[C@H]1[C@@H]3C[C@H](F)C4=CC(=O)C=C[C@]4(C)[C@@]3(F)[C@@H](O)C[C@@]12C [Example 6, (22R)-16α,17α-Butylidenedioxy-6α,9α-difluoro-11β-hydroxy-21-palmitoyloxypregna-1,4-diene-3,20-dione]
[1]
  ED50: 0.0018 µmol/kg

## CCCCCCCCCCCCCCCC(=O)OCC(=O)[C@@]12O[C@@H](CCC)O[C@@H]1C[C@H]1[C@@H]3C[C@H](F)C4=CC(=O)C=C[C@]4(C)[C@@]3(F)[C@@H](O)C[C@@]12C [Example 7, (22S)-16α,17α-Butylidenedioxy-6α,9α-difluoro-11β-hydroxy-21-palmitoyloxypregna-1,4-diene-3,20-dione]
[1]
  ED50: 0.0023 µmol/kg
[2]
  ED50: 0.568 µmol/kg
[3]
  Ratio oral/local administration (ED50): 247

## CCCCCCCCCCCCCCCC(=O)OCC(=O)[C@@]1(O)[C@H](C)C[C@H]2[C@@H]3C[C@H](F)C4=CC(=O)C=C[C@]4(C)[C@@]3(F)[C@@H](O)C[C@@]21C [Flumethasone-21-palmitate]
[1]
  ED50: 0.0022 µmol/kg
[2]
  ED50: 0.018 µmol/kg
[3]
  Ratio oral/local administration (ED50): 8

## CCC(=O)OCC(=O)[C@@]1(OC(=O)CC)[C@@H](C)C[C@H]2[C@@H]3CCC4=CC(=O)C=C[C@]4(C)[C@@]3(Cl)[C@@H](O)C[C@@]21C [beclomethasone 17α,21-dipropionate]
[4]
  unwanted GCS actions within the general circulation: unwanted GCS actions within the general circulation have been reported
[4]; in vivo
  safety margin: rather narrow safety margin

## CCCC1O[C@@H]2C[C@H]3[C@@H]4CCC5=CC(=O)C=C[C@]5(C)[C@H]4[C@@H](O)C[C@]3(C)[C@]2(C(=O)CO)O1 (some centres unmarked) [budesonide]
[4]
  unwanted GCS actions within the general circulation: unwanted GCS actions within the general circulation have been reported
[4]; inhaled, clinical use
  safety margin: rather narrow safety margin
